Paper PMC10661964 (Current Drug Metabolism, 2023)
Like-named read-outs stand apart in the source and are kept apart here.

Key:
[1] = Unbound fraction (fu) in human plasma; format: in vitro ADME
CYP 3A4 [2] = molecular target: CYP 3A4 (Homo sapiens, UniProt P08684); assay: CYP inhibition with probe substrates; format: in vitro ADME
From the text: (§1) The inhibition of cytochrome P450 (CYP) isoforms and a range of cellular transporters (except multidrug and toxin extrusion [MATE] proteins), as well as the induction of CYP isoforms were investigated using previously described methods.

CYP 1A2 = assay: CYP induction (mRNA and CYP activity); format: in vitro ADME, human
From the text: as §1

CYP 2B6 = assay: CYP induction (mRNA and CYP activity); format: in vitro ADME, human
From the text: as §1

CYP 3A4 [3] = assay: CYP induction (mRNA and CYP activity); format: in vitro ADME, human
From the text: as §1

MATE1 = molecular target: T1, MATE1 (Homo sapiens, UniProt Q96FL8); assay: MATE1 transport assay in overexpressing HEK293 cells; format: in vitro ADME; conditions: probe substrate metformin 20 µM
T1 construct: expressed in transfected cells; host or cells: HEK293, stably transfected
T1 sequence (Q96FL8 1-570): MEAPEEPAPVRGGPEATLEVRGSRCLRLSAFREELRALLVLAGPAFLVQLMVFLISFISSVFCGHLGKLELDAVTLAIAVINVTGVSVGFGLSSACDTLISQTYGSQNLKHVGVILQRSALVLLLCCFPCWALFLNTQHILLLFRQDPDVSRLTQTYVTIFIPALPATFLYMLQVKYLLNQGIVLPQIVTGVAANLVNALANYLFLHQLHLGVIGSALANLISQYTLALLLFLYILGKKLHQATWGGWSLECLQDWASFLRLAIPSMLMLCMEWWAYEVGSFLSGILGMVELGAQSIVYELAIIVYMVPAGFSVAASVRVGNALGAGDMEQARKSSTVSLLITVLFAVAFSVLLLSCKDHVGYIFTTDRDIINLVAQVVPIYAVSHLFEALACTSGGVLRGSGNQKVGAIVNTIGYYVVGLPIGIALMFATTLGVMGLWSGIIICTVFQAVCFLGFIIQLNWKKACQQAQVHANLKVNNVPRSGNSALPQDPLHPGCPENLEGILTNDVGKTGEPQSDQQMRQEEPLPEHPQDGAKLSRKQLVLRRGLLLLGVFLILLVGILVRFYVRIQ
Description: as §1
(§2) Supplementary Material Current Drug Metabolism, 2023, Vol. 24, No. 8 iii […]
(§3) -, not determined; BCRP, breast cancer resistance protein; P-gp, P-glycoprotein; MATE, multidrug and toxin extrusion. aThe highest test concentration of 20 µM was not valid in this assay for technical reasons.
(§4) OAT, organic anion transporter; OATP, organic anion transporting polypeptide; OCT, organic cation transporters.
(§5) After thawing from frozen storage, aliquots of approximately 3 x 10^6 cells of human embryonic kidney (HEK293) cell line stable overex-pressing MATE1 or MATE2K were transferred to cell culture dishes containing 10 mL of DMEM-medium (supplemented with 10% FBS, 1% penicillin [10.000 U/mL]/streptomycin [10 mg/mL] and hygromycin B [150 µg/mL]) at 37°C. Transporter-transfected and vector-transfected HEK cells were grown on cell culture dishes at 37°C in a humidified 5% CO 2 atmosphere. All cell lines were confirmed free from mycoplasma by routine testing with conventional PCR. Cell cultures were split when they had grown to confluency. For passaging, cells were washed with PBS, exposed to trypsin-EDTA for 5 min at room temperature, collected by centrifugation, resuspended in culture medium and […]
(§6) MATE1 and MATE2K Transport Assays
(§7) Transporter-transfected and vector-transfected cells were prepared for use in uptake assays by harvesting and plating into 24-well-plates pre-coated with poly-D-lysine hydrobromide at a density of 2 x 10^5 cells/well and then cultured for 3 days in DMEM growth medium (high glucose, 10% FBS, 1% penicillin/streptomycin). For uptake assays, the growth medium was aspirated and each plate well was rinsed twice with HBSS supplemented with 20 mM HEPES, pH 7.4. The intracellular environment was acidified by preincubation in 30 mM NH4Cl in buffer pH 7.4 at 37°C for 30 min. […]

MATE2K = molecular target: T2, MATE2K (Homo sapiens, UniProt Q86VL8); assay: MATE2K transport assay in overexpressing HEK293 cells; format: in vitro ADME; conditions: probe substrate metformin 90 µM
T2 construct: expressed in transfected cells; host or cells: HEK293, stably transfected
T2 sequence (Q86VL8 1-566 isoform Q86VL8-3): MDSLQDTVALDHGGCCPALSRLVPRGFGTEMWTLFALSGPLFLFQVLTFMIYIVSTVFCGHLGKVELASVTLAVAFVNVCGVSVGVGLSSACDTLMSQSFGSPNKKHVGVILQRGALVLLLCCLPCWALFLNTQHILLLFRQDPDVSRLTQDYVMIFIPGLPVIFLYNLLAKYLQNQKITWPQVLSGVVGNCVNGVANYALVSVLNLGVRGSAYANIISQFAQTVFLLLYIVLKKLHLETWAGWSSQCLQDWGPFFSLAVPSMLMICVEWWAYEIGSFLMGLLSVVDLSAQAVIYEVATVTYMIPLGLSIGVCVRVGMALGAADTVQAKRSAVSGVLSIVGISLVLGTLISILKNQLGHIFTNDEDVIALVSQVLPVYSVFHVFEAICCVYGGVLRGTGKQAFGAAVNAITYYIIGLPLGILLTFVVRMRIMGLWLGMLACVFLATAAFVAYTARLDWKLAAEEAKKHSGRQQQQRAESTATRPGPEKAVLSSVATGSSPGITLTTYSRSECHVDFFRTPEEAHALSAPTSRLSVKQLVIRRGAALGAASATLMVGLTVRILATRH
Description: as §1, §2, §3, §4, §5, §6, §7

OATP1B1 = molecular target: T3, OATP1B1 (Homo sapiens, UniProt Q9Y6L6); assay: Uptake transporter inhibition; format: in vitro ADME; conditions: probe substrate pravastatin
T3 sequence (Q9Y6L6 1-691): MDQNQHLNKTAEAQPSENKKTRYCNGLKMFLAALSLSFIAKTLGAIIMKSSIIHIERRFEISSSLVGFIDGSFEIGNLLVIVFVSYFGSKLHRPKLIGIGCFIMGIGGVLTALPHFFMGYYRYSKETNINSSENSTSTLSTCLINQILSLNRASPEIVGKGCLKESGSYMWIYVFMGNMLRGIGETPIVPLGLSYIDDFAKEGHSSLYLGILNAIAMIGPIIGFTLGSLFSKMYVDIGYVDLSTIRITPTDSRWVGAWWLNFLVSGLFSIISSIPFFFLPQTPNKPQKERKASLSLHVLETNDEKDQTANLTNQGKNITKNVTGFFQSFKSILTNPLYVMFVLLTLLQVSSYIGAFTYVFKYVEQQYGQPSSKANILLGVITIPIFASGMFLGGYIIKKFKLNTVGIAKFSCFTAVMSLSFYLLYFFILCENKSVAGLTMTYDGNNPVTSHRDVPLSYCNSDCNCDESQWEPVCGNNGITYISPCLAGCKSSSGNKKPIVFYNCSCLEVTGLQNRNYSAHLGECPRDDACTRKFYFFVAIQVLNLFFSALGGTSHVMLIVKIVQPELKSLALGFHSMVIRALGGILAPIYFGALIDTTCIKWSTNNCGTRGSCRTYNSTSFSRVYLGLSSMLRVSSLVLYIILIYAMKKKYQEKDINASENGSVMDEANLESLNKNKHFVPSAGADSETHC
From the text: as §1

[4] = 3A4 (M), 30-min preincubation, probe substrate midazolam, read-out: Pre- IC50 (+ NADPH)
[5] = 3A4 (M), coincubation, probe substrate midazolam, read-out: Co- IC50
[6] = 3A4 (M), probe substrate midazolam
[7] = 3A4 (T), 30-min preincubation, probe substrate testosterone, read-out: Pre- IC50 (+ NADPH)
[8] = 3A4 (T), coincubation, probe substrate testosterone, read-out: Co- IC50
[9] = 3A4 (T), probe substrate testosterone

Chain of CYP 3A4 (Homo sapiens, UniProt P08684) (P08684 whole entry, canonical isoform): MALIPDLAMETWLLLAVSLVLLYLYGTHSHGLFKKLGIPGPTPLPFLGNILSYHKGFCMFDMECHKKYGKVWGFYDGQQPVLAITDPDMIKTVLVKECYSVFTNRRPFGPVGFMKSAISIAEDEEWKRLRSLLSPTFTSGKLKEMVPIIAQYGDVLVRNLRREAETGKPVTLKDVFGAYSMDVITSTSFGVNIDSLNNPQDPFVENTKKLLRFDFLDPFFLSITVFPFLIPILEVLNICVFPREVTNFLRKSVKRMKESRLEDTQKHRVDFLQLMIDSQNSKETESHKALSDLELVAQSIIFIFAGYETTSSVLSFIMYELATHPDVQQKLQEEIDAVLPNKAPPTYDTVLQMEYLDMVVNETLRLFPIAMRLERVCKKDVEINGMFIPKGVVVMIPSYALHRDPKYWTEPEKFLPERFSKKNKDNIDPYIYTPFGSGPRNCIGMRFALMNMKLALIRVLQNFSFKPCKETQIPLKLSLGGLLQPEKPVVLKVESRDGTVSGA

For `CC1CS(=O)(=O)CCN1/N=C/c1ccc([N+](=O)[O-])o1` (stereo not drawn) [Nifurtimox, (E)-N-(3-methyl-1,1-dioxo-1,4-thiazinan-4-yl)-1-(5-nitrofuran-2-yl) methanimine, reference compound], the fraction unbound [1] was 0.576, the IC50 (CYP 3A4 [2]; [4]) was 4.8e-05 to 4.9e-05 M and the IC50 (CYP 3A4 [2]; [5]) was > 5e-05 M. For the same molecule, the “TDI (time-dependent inhibition)” value (CYP 3A4 [2]; [6]) was “No”, the IC50 (CYP 3A4 [2]; [7]) was > 5e-05 M and the IC50 (CYP 3A4 [2]; [8]) was > 5e-05 M. For the same molecule, the “TDI (time-dependent inhibition)” value (CYP 3A4 [2]; [9]) was “No”, the “concentration up to which no induction (mRNA and CYP activity)” value (“concentration up to which no induction” for short) (CYP 1A2) was “up to 30000 µg/L” and the “concentration up to which no induction” value (CYP 2B6) was “up to 30000 µg/L”. For the same molecule, the “concentration up to which no induction” value (CYP 3A4 [3]) was “up to 30000 µg/L”, the IC50 (MATE1) was > 20 µM and the IC50 (MATE2K) was > 20 µM. For the same molecule, the IC50 (OATP1B1) was > 50 µM.

In the case of `CC1CS(=O)(=O)CCN1n1cc(SCC(N)C(=O)O)ccc1=O` (stereo not drawn) [M-4], the fraction unbound [1] is reported as 1, the IC50 (CYP 3A4 [2]; [4]) is reported as > 2e-05 M and the IC50 (CYP 3A4 [2]; [5]) is reported as > 2e-05 M. For the same molecule, the “TDI (time-dependent inhibition)” value (CYP 3A4 [2]; [6]) was “No”, the IC50 (CYP 3A4 [2]; [7]) was > 2e-05 M and the IC50 (CYP 3A4 [2]; [8]) was > 2e-05 M. The “TDI (time-dependent inhibition)” value (CYP 3A4 [2]; [9]) was “No”, the “concentration up to which no induction” value (CYP 1A2) was “up to 80000 µg/L” and the “concentration up to which no induction” value (CYP 2B6) was “up to 80000 µg/L”. For the same molecule, the “concentration up to which no induction” value (CYP 3A4 [3]) was “up to 80000 µg/L”, the IC50 (MATE1) was > 5 µM and the IC50 (MATE2K) was > 5 µM. The IC50 (OATP1B1) was > 20 µM.

With `CC1CS(=O)(=O)CCN1N` (stereo not drawn) [M-6] the fraction unbound [1] was 1, the IC50 (CYP 3A4 [2]; [4]) was > 0.0001 M and the IC50 (CYP 3A4 [2]; [5]) was > 0.0001 M. For the same molecule, the “TDI (time-dependent inhibition)” value (CYP 3A4 [2]; [6]) was “No”, the IC50 (CYP 3A4 [2]; [7]) was > 0.0001 M and the IC50 (CYP 3A4 [2]; [8]) was > 0.0001 M. For the same molecule, the “TDI (time-dependent inhibition)” value (CYP 3A4 [2]; [9]) was “No”, the “concentration up to which no induction” value (CYP 1A2) was “up to 90000 µg/L” and the “concentration up to which no induction” value (CYP 2B6) was “up to 90000 µg/L”. For the same molecule, the “concentration up to which no induction” value (CYP 3A4 [3]) was “up to 90000 µg/L”, the IC50 (MATE1) was > 30 µM and the IC50 (MATE2K) was > 30 µM. For the same molecule, the IC50 (OATP1B1) was > 50 µM.
